Reference: PubChem BioAssay AID2060882 (Molecular Pharmacology Branch, DTP, NCI, 2025)

Tested on: 898857-211-R-J1-PDC complex spheroids, growth % test/control
Assay: Anticancer human tumor 898857-211-R-J1-PDC patient-derived melanoma cell line growth inhibition [RAS]
Conditions: for IC50: curve of first compound; for viability, T/C: stronger effect = lower value
How it was run: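 Agents were tested in combination matrices in half-log decrements from a top concentration at or near clinical Cmax (10 microM if undetermined). Targets were multi-cell spheroids of tumour lines plus HUVEC and MSC stromal cells.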

[1] = second compound 0.000949 µM, first compound 0.0316 µM
[2] = second compound 0.000949 µM, first compound 0.1 µM
[3] = second compound 0.000949 µM, first compound 0.316 µM
[4] = second compound 0.000949 µM, first compound 1 µM
[5] = second compound 0.000949 µM, first compound 3.16 µM
[6] = second compound 0.000949 µM, first compound 10 µM
[7] = second compound 0.003 µM, first compound 0.0316 µM
[8] = second compound 0.003 µM, first compound 0.1 µM
[9] = second compound 0.003 µM, first compound 0.316 µM
[10] = second compound 0.003 µM, first compound 1 µM
[11] = second compound 0.003 µM, first compound 3.16 µM
[12] = second compound 0.003 µM, first compound 10 µM
[13] = second compound 0.00949 µM, first compound 0.0316 µM
[14] = second compound 0.00949 µM, first compound 0.1 µM
[15] = second compound 0.00949 µM, first compound 0.316 µM
[16] = second compound 0.00949 µM, first compound 1 µM
[17] = second compound 0.00949 µM, first compound 3.16 µM
[18] = second compound 0.00949 µM, first compound 10 µM
[19] = second compound 0.03 µM, first compound 0.0316 µM
[20] = second compound 0.03 µM, first compound 0.1 µM
[21] = second compound 0.03 µM, first compound 0.316 µM
[22] = second compound 0.03 µM, first compound 1 µM
[23] = second compound 0.03 µM, first compound 3.16 µM
[24] = second compound 0.03 µM, first compound 10 µM
[25] = second compound 0.0949 µM, first compound 0.0316 µM
[26] = second compound 0.0949 µM, first compound 0.1 µM
[27] = second compound 0.0949 µM, first compound 0.316 µM
[28] = second compound 0.0949 µM, first compound 1 µM
[29] = second compound 0.0949 µM, first compound 3.16 µM
[30] = second compound 0.0949 µM, first compound 10 µM
[31] = second compound 0.3 µM, first compound 0.0316 µM
[32] = second compound 0.3 µM, first compound 0.1 µM
[33] = second compound 0.3 µM, first compound 0.316 µM
[34] = second compound 0.3 µM, first compound 1 µM
[35] = second compound 0.3 µM, first compound 3.16 µM
[36] = second compound 0.3 µM, first compound 10 µM
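Further: spheroids exposed to compound for seven days before readout.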
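Wherever viability, T/C is given: 100% = DMSO vehicle control wells.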

`CC(C)NCC(C(=O)N1CCN(c2ncnc3c2C(C)CC3O)CC1)c1ccc(Cl)cc1` (stereo not drawn) + CCn1c(-c2cccnc2C(C)OC)c2c3cc(ccc31)N1CCOC(CC(NC(=O)C(C(C)C)N(C)C(=O)C3(F)CCN(C(=O)C#CC(C)(C)N(C)C)CC3)C(=O)N3CCCC(N3)C(=O)OCC(C)(C)C2)C1 gave an IC50 (second compound 0.000949 µM) of over 10 µM, an IC50 (second compound 0.003 µM) of over 10 µM and an IC50 (second compound 0.00949 µM) of 9.66 µM. The IC50 (second compound 0.03 µM) was 8.56 µM, the IC50 (second compound 0.0949 µM) was 5.46 µM and the IC50 (second compound 0.3 µM) was 3.31 µM. The viability, T/C [1] was 111%, the viability, T/C [2] was 101% and the viability, T/C [3] was 90.9%. For the same compound, the viability, T/C [4] was 91.6%, the viability, T/C [5] was 65.4% and the viability, T/C [6] was 50.9%. The viability, T/C [7] was 115%, the viability, T/C [8] was 117% and the viability, T/C [9] was 103%. It also gave a viability, T/C [10] of 82.1%, a viability, T/C [11] of 79.6% and a viability, T/C [12] of 57.2%. For the same compound, the viability, T/C [13] was 113%, the viability, T/C [14] was 110% and the viability, T/C [15] was 102%. The viability, T/C [16] was 84.8%, the viability, T/C [17] was 73% and the viability, T/C [18] was 48.7%. It also gave a viability, T/C [19] of 112%, a viability, T/C [20] of 100% and a viability, T/C [21] of 97.3%. It also gave a viability, T/C [22] of 91.1%, a viability, T/C [23] of 74.4% and a viability, T/C [24] of 45.6%. It also gave a viability, T/C [25] of 92%, a viability, T/C [26] of 89.4% and a viability, T/C [27] of 92.7%. The viability, T/C [28] was 76.4%, the viability, T/C [29] was 60.1% and the viability, T/C [30] was 39.7%. The viability, T/C [31] was 75%, the viability, T/C [32] was 72.7% and the viability, T/C [33] was 69.5%. For the same compound, the viability, T/C [34] was 55.9%, the viability, T/C [35] was 53.5% and the viability, T/C [36] was 37.1%.
`CC(C)n1nc(-c2ccc3oc(N)nc3c2)c2c(N)ncnc21` + CCn1c(-c2cccnc2C(C)OC)c2c3cc(ccc31)N1CCOC(CC(NC(=O)C(C(C)C)N(C)C(=O)C3(F)CCN(C(=O)C#CC(C)(C)N(C)C)CC3)C(=O)N3CCCC(N3)C(=O)OCC(C)(C)C2)C1 gave an IC50 (second compound 0.000949 µM) of 0.0271 µM, an IC50 (second compound 0.003 µM) of 0.0238 µM and an IC50 (second compound 0.00949 µM) of 0.0238 µM. It also gave an IC50 (second compound 0.03 µM) of 0.021 µM, an IC50 (second compound 0.0949 µM) of 0.0151 µM and an IC50 (second compound 0.3 µM) of 0.00705 µM. It also gave a viability, T/C (second compound 0.000949 µM, first compound 0.000316 µM) of 107%, a viability, T/C (second compound 0.000949 µM, first compound 0.001 µM) of 91.6% and a viability, T/C (second compound 0.000949 µM, first compound 0.00316 µM) of 87.2%. For the same compound, the viability, T/C (second compound 0.000949 µM, first compound 0.01 µM) was 68.7%, the viability, T/C [1] was 46.4% and the viability, T/C [2] was 20.5%. The viability, T/C (second compound 0.003 µM, first compound 0.000316 µM) was 106%, the viability, T/C (second compound 0.003 µM, first compound 0.001 µM) was 90.9% and the viability, T/C (second compound 0.003 µM, first compound 0.00316 µM) was 78.8%. For the same compound, the viability, T/C (second compound 0.003 µM, first compound 0.01 µM) was 70%, the viability, T/C [7] was 44.8% and the viability, T/C [8] was 20.4%. For the same compound, the viability, T/C (second compound 0.00949 µM, first compound 0.000316 µM) was 99.1%, the viability, T/C (second compound 0.00949 µM, first compound 0.001 µM) was 99.2% and the viability, T/C (second compound 0.00949 µM, first compound 0.00316 µM) was 86.2%. The viability, T/C (second compound 0.00949 µM, first compound 0.01 µM) was 75.1%, the viability, T/C [13] was 41.3% and the viability, T/C [14] was 17.7%. The viability, T/C (second compound 0.03 µM, first compound 0.000316 µM) was 103%, the viability, T/C (second compound 0.03 µM, first compound 0.001 µM) was 86.9% and the viability, T/C (second compound 0.03 µM, first compound 0.00316 µM) was 79.9%. The viability, T/C (second compound 0.03 µM, first compound 0.01 µM) was 72.1%, the viability, T/C [19] was 36.8% and the viability, T/C [20] was 17%. The viability, T/C (second compound 0.0949 µM, first compound 0.000316 µM) was 89.1%, the viability, T/C (second compound 0.0949 µM, first compound 0.001 µM) was 87.2% and the viability, T/C (second compound 0.0949 µM, first compound 0.00316 µM) was 86.5%. For the same compound, the viability, T/C (second compound 0.0949 µM, first compound 0.01 µM) was 55.6%, the viability, T/C [25] was 35.5% and the viability, T/C [26] was 16.2%. The viability, T/C (second compound 0.3 µM, first compound 0.000316 µM) was 74.9%, the viability, T/C (second compound 0.3 µM, first compound 0.001 µM) was 64% and the viability, T/C (second compound 0.3 µM, first compound 0.00316 µM) was 61.1%. It also gave a viability, T/C (second compound 0.3 µM, first compound 0.01 µM) of 46.3%, a viability, T/C [31] of 30% and a viability, T/C [32] of 13.6%.
With `CC(Nc1ccc2c(c1)OCCn1cc(N3C(=O)OCC3C(F)F)nc1-2)C(N)=O` (stereo not drawn) + CCn1c(-c2cccnc2C(C)OC)c2c3cc(ccc31)N1CCOC(CC(NC(=O)C(C(C)C)N(C)C(=O)C3(F)CCN(C(=O)C#CC(C)(C)N(C)C)CC3)C(=O)N3CCCC(N3)C(=O)OCC(C)(C)C2)C1 the IC50 (second compound 0.000949 µM) was over 10 µM, the IC50 (second compound 0.003 µM) was over 10 µM and the IC50 (second compound 0.00949 µM) was over 10 µM. It also gave an IC50 (second compound 0.03 µM) of over 10 µM, an IC50 (second compound 0.0949 µM) of over 10 µM and an IC50 (second compound 0.3 µM) of 5.64 µM. The viability, T/C [1] was 110%, the viability, T/C [2] was 87% and the viability, T/C [3] was 89.4%. The viability, T/C [4] was 92.7%, the viability, T/C [5] was 89.3% and the viability, T/C [6] was 65.8%. For the same compound, the viability, T/C [7] was 105%, the viability, T/C [8] was 103% and the viability, T/C [9] was 97.4%. The viability, T/C [10] was 104%, the viability, T/C [11] was 96.7% and the viability, T/C [12] was 63.2%. The viability, T/C [13] was 94.9%, the viability, T/C [14] was 104% and the viability, T/C [15] was 92.8%. It also gave a viability, T/C [16] of 103%, a viability, T/C [17] of 78.7% and a viability, T/C [18] of 66.4%. The viability, T/C [19] was 89.8%, the viability, T/C [20] was 98.3% and the viability, T/C [21] was 98.2%. For the same compound, the viability, T/C [22] was 95.4%, the viability, T/C [23] was 75.8% and the viability, T/C [24] was 58.8%. The viability, T/C [25] was 103%, the viability, T/C [26] was 98.7% and the viability, T/C [27] was 91%. For the same compound, the viability, T/C [28] was 83.8%, the viability, T/C [29] was 63.1% and the viability, T/C [30] was 53%. It also gave a viability, T/C [31] of 73.9%, a viability, T/C [32] of 74.7% and a viability, T/C [33] of 68%. It also gave a viability, T/C [34] of 69.5%, a viability, T/C [35] of 57.6% and a viability, T/C [36] of 41.8%.
With `C[C@@H](NC(=O)c1ncnc(N)c1Cl)c1ncc(C(=O)Nc2cc(C(F)(F)F)c(Cl)cn2)s1` + CCn1c(-c2cccnc2C(C)OC)c2c3cc(ccc31)N1CCOC(CC(NC(=O)C(C(C)C)N(C)C(=O)C3(F)CCN(C(=O)C#CC(C)(C)N(C)C)CC3)C(=O)N3CCCC(N3)C(=O)OCC(C)(C)C2)C1 the IC50 (second compound 0.000949 µM) was 3.86 µM, the IC50 (second compound 0.003 µM) was 2.55 µM and the IC50 (second compound 0.00949 µM) was 3.12 µM. For the same compound, the IC50 (second compound 0.03 µM) was 3.88 µM, the IC50 (second compound 0.0949 µM) was 3.03 µM and the IC50 (second compound 0.3 µM) was 1.97 µM. It also gave a viability, T/C [1] of 121%, a viability, T/C [2] of 114% and a viability, T/C [3] of 112%. It also gave a viability, T/C [4] of 83.5%, a viability, T/C [5] of 56.2% and a viability, T/C [6] of 27.5%. For the same compound, the viability, T/C [7] was 128%, the viability, T/C [8] was 105% and the viability, T/C [9] was 103%. The viability, T/C [10] was 66.4%, the viability, T/C [11] was 45.6% and the viability, T/C [12] was 28.8%. The viability, T/C [13] was 114%, the viability, T/C [14] was 120% and the viability, T/C [15] was 111%. For the same compound, the viability, T/C [16] was 81.3%, the viability, T/C [17] was 52.1% and the viability, T/C [18] was 27.9%. It also gave a viability, T/C [19] of 123%, a viability, T/C [20] of 116% and a viability, T/C [21] of 97.4%. It also gave a viability, T/C [22] of 83.7%, a viability, T/C [23] of 53.6% and a viability, T/C [24] of 26.6%. For the same compound, the viability, T/C [25] was 105%, the viability, T/C [26] was 100% and the viability, T/C [27] was 87.2%. For the same compound, the viability, T/C [28] was 66.7%, the viability, T/C [29] was 51.7% and the viability, T/C [30] was 24.9%. For the same compound, the viability, T/C [31] was 82.9%, the viability, T/C [32] was 87.9% and the viability, T/C [33] was 73.2%. For the same compound, the viability, T/C [34] was 62.5%, the viability, T/C [35] was 41.8% and the viability, T/C [36] was 21.3%.
